{"source": "patent US7637980B2", "about": "“Method of increasing photosynthesis in plants comprising an exposure thereof to lipochitooligosaccharides and compositions therefor” (McGill University, priority 1999, dated 2009)", "type_in_all_cases": "in vivo", "key": {"[1]": {"system": "rice (Oryza sativa cv Cypress)", "assay": "Photosynthesis of rice after LCO spray, greenhouse", "experimental": "(§1) Seeds of rice (Oryza sativa cv Cypress), canola (Brassica napus cv Springfield), corn (Zea mays cv Pioneer 3921) and melon (Cucumis melo cv Nova) were surface sterilized with 2% sodium hypochlorite for 3-4 min, washed with several changes of sterile distilled water and planted in plastic pots (15 cm dia) containing promix (Premier Brands Inc., New Rochelle, N.Y., USA).\n(§2) Concentrations of LCO (10^−6 M-10^−12 M) were made with distilled water containing 0.02% Tween 20. A control treatment, containing 0.02% Tween 20, but no LCO was also applied. Since the rates of growth and development differed among the plant species used in the experiments, spray treatment was conducted at different times after planting In general, the spray was applied when the plants were big enough to allow easy measurements of leaf photosynthetic rates. The following are the ages of the plants when the sprays were conducted: soybean 21 days after planting (DAP), corn 25 DAP, rice 45 DAP, melon (35 DAP) and canola 30 DAP. The plants were sprayed with LCO solutions until dripping. The sprays were applied with an atomizer (Nalgene, USA). Each plant required 2-3 mL of spray solution. Each treatment was replicated at least five times and organized on the green house bench in a randomized complete block design. Each experiment (with each crop species) was repeated at least twice.\n(§3) Photosynthesis was recorded every 24 h using a Li-Cor 6400 portable photosynthesis system (Li-Cor Inc., Lincoln, Neb., USA) for 6 days. In the case of soybean the photosynthesis in the second nodal leaf from the top was recorded while in the other species used in the photosynthetic rate was measured for the top-most fully expanded leaf. Soybean plants were harvested after seven days of LCO treatment and dried at 80° C. for 48 h. Data were analyzed with the Statistical Analysis System (SAS Inc., N.C., USA). Percent increase in photosynthesis over the control was calculated."}, "[2]": {"system": "canola (Brassica napus cv Springfield)", "assay": "Photosynthesis of canola after LCO spray, greenhouse", "experimental": "as §1, §2, §3"}, "[3]": {"system": "soybean (cv OAC Bayfield)", "assay": "Growth and yield of soybean under field conditions (1999)", "experimental": "The soybean experiment was conducted at the Lods Agronomy Research Centre, McGill University, Macdonald Campus, Ste-Anne-de-Bellevue, Quebec, Canada during the period June to September, 1999. A randomized complete block design with three blocks was followed. The plot size was 2×4 m with a row to row spacing of 25 cm and 10 cm between plants within a row. Seeds of soybean (cv OAC Bayfield), treated with commercial Bradyrhizobium japonicum inoculant (Bios Agriculture Inc., Quebec, Canada) at the rate of 3 g per kilogram of seed, were hand planted.\nAt 25 days after planting twenty plants in each plot were randomly marked and sprayed until dripping with LCO solutions (10^−6, 10^−8 and 10^−10M) containing 0.02% Tween 20 with a hand sprayer. The plants on either side, within the row, of the marked plants were also sprayed. A second spray was carried out at flowering stage and a third spray at pod filling.\nAs with the indoor experiments, photosynthetic readings were taken every day for five days after the application of LCO. For soybean additional developmental and agronomic data were collected. The first harvest was conducted at 25 days after the first spray treatment. Five plants were harvested from each plot and the following growth variables were analyzed: plant height, number of branches, number of leaves, leaf area, number of flower clusters, number of pods, number of nodules, dry weights of leaves, stem and roots. The final harvest was conducted after physiological maturity of the plants (Fehr et al., 1971); at this time the remaining fifteen treated plants from each plot were harvested and data on number of branches, number of pods, number of seeds and grain yield per plant was collected."}}, "data": [{"substance": "Nod Bj V (C18:1, MeFeu)", "values": [{"measurement": "intercellular CO2 concentration", "setting": "[1]", "result": "unaffected"}, {"measurement": "stomatal conductance", "setting": "[1]", "result": "increases"}, {"measurement": "transpiration", "setting": "[1]", "result": "increases"}, {"measurement": "increase in photosynthesis", "setting": "[1]; in general", "result": "10-20%"}, {"measurement": "intercellular CO2 concentration", "setting": "[2]", "result": "unaffected"}, {"measurement": "stomatal conductance", "setting": "[2]", "result": "increases"}, {"measurement": "transpiration", "setting": "[2]", "result": "increases"}, {"measurement": "increase in photosynthesis", "setting": "[2]; in general", "result": "10-20%"}, {"measurement": "Leaf area/Plant", "setting": "[3]; LCO 10^−6 M, field", "result": 2306.3, "unit": "cm^2"}, {"measurement": "No. Branches/Plant", "setting": "[3]; LCO 10^−6 M, field", "result": 4.2}, {"measurement": "No. Leaves/Plant", "setting": "[3]; LCO 10^−6 M, field", "result": 29.4}, {"measurement": "No. Nodules/Plant", "setting": "[3]; LCO 10^−6 M, field", "result": 63.5}, {"measurement": "No. Pod clusters/Plant", "setting": "[3]; LCO 10^−6 M, field", "result": 24.3}, {"measurement": "No. Pods/Plant", "setting": "[3]; LCO 10^−6 M, field", "result": 42.9}, {"measurement": "No. seeds/Plant", "setting": "[3]; LCO 10^−6 M, field", "result": 104.7}, {"measurement": "Plant height", "setting": "[3]; LCO 10^−6 M, field", "result": 78.5, "unit": "cm"}, {"measurement": "Root Dry weight/plant", "setting": "[3]; LCO 10^−6 M, field", "result": 3.0, "unit": "gm"}, {"measurement": "Seed yield/plant", "setting": "[3]; LCO 10^−6 M, field", "result": 22.1, "unit": "gm"}, {"measurement": "Shoot dry weight/Plant", "setting": "[3]; LCO 10^−6 M, field", "result": 24.7, "unit": "gm"}, {"measurement": "Leaf area/Plant", "setting": "[3]; LCO 10^−8 M, field", "result": 2120.4, "unit": "cm^2"}, {"measurement": "No. Branches/Plant", "setting": "[3]; LCO 10^−8 M, field", "result": 5.1}, {"measurement": "No. Leaves/Plant", "setting": "[3]; LCO 10^−8 M, field", "result": 25.4}, {"measurement": "No. Nodules/Plant", "setting": "[3]; LCO 10^−8 M, field", "result": 84.6}, {"measurement": "No. Pod clusters/Plant", "setting": "[3]; LCO 10^−8 M, field", "result": 24.8}, {"measurement": "No. Pods/Plant", "setting": "[3]; LCO 10^−8 M, field", "result": 42.4}, {"measurement": "No. seeds/Plant", "setting": "[3]; LCO 10^−8 M, field", "result": 106.3}, {"measurement": "Plant height", "setting": "[3]; LCO 10^−8 M, field", "result": 85.8, "unit": "cm"}, {"measurement": "Root Dry weight/plant", "setting": "[3]; LCO 10^−8 M, field", "result": 2.3, "unit": "gm"}, {"measurement": "Seed yield/plant", "setting": "[3]; LCO 10^−8 M, field", "result": 21, "unit": "gm"}, {"measurement": "Shoot dry weight/Plant", "setting": "[3]; LCO 10^−8 M, field", "result": 23.7, "unit": "gm"}, {"measurement": "Leaf area/Plant", "setting": "[3]; LCO 10^−10 M, field", "result": 1513.1, "unit": "cm^2"}, {"measurement": "No. Branches/Plant", "setting": "[3]; LCO 10^−10 M, field", "result": 3.4}, {"measurement": "No. Leaves/Plant", "setting": "[3]; LCO 10^−10 M, field", "result": 22.2}, {"measurement": "No. Nodules/Plant", "setting": "[3]; LCO 10^−10 M, field", "result": 68.3}, {"measurement": "No. Pod clusters/Plant", "setting": "[3]; LCO 10^−10 M, field", "result": 28.3}, {"measurement": "No. Pods/Plant", "setting": "[3]; LCO 10^−10 M, field", "result": 48.0}, {"measurement": "No. seeds/Plant", "setting": "[3]; LCO 10^−10 M, field", "result": 118.1}, {"measurement": "Plant height", "setting": "[3]; LCO 10^−10 M, field", "result": 83.5, "unit": "cm"}, {"measurement": "Root Dry weight/plant", "setting": "[3]; LCO 10^−10 M, field", "result": 2.3, "unit": "gm"}, {"measurement": "Seed yield/plant", "setting": "[3]; LCO 10^−10 M, field", "result": 22.6, "unit": "gm"}, {"measurement": "Shoot dry weight/Plant", "setting": "[3]; LCO 10^−10 M, field", "result": 19.8, "unit": "gm"}, {"measurement": "Plant height", "setting": "[3]; field 1999, LCO treatment vs control", "result": "not affected"}, {"measurement": "grain yield enhanced by", "setting": "[3]; field, spray at seedling, flowering and podfilling stages", "result": "33-44%"}]}]}
